Measured values: article PMC12434071, “Platinum-group metal half-sandwich complexes of 1-(α-D-glucopyranosyl)-4-hetaryl-1,2,3-triazoles: synthesis, solution equilibrium studies, and investigation of their anticancer and antimicrobial activities” (Frontiers in Chemistry, 2025)

Columns and labels:
[1] = pH-potentiometric titration, protonation constants (pKa) of the ligands; type: physicochemical; conditions: 0.20 M KCl, 25.0°C; N-heterocyclic ring of the ligand
Method: In order to obtain information on the acidbase character of the ligands and on the stoichiometry and stability of the complexes present in aqueous medium, potentiometric titrations were carried out in selected systems. Based on the results, both 3a and 3b, having good enough solubility in water, are capable of releasing one hydrogen ion from the fully protonated forms in the measurable pH range (see Figure 3, “pK”). The calculated pK a values appear in Table 4; these values belong to the N-heterocyclic ring of the ligands. […]. For comparison, the previously prepared β-anomeric pair of 3a, compound 3a-β ([Kacsir et al., 2021]) in Table 4, was also studied.
For solution studies, doubly deionized and ultra-filtered water was obtained from a Milli-Q RG (Millipore) water purification system. pH-potentiometric measurements were carried out at a constant ionic strength of 0.20 M KCl and at 25.0°C. Carbonate-free KOH solutions of known concentrations (ca. 0.2 M) were used as titrant. […]. A Mettler Toledo DL50 titrator equipped with a DG114-SC combined glass electrode was used for the pH-potentiometric measurements. […] The titrations were performed in the pH range of 2.0–11.0 in equilibrium-controlled mode, during which the pH equilibrium was assumed to be reached if a change in the measured potential was less than 0.1 mV within 90 s. […]

[2] = pH-potentiometric titration, stability constants (logβ) of ML complexes; type: physicochemical; conditions: [(η^5-Cp*)Rh]^2+; 0.20 M KCl, 25.0°C
Description: […]. […] Comparing the two metal ion containing systems, the complexation with [(η^6-p-cym)Ru]^2+, starts at a more acidic pH, but hydrolytic processes occur already in the physiological pH range due to the higher affinity of the metal ion to hydrolysis. For the [(η^5-Cp*)Rh]^2+, these processes are shifted towards higher pH; […].
For solution studies, doubly deionized and ultra-filtered water was obtained from a Milli-Q RG (Millipore) water purification system. pH-potentiometric measurements were carried out at a constant ionic strength of 0.20 M KCl and at 25.0°C. Carbonate-free KOH solutions of known concentrations (ca. 0.2 M) were used as titrant. […]. A Mettler Toledo DL50 titrator equipped with a DG114-SC combined glass electrode was used for the pH-potentiometric measurements. […] The titrations were performed in the pH range of 2.0–11.0 in equilibrium-controlled mode, during which the pH equilibrium was assumed to be reached if a change in the measured potential was less than 0.1 mV within 90 s. […] The protonation constants of the ligands and the overall stability constants of the complexes, βp,q,r = [MpHqLr]/[M]^p[H]^q[L]^r (where “M” stands for [(η^5-Cp*)Rh(H2O)3]^2+ and “L” represents the completely deprotonated form of the ligand), were calculated with the aid of the SUPERQUAD ([Gans et al., 1985]) and PSEQUAD ([Zékány and Nagypál, 1985]) computer programs, respectively. […]

Compound: OC[C@H]1O[C@H](n2cc(-c3ccccn3)nn2)[C@H](O)[C@@H](O)[C@@H]1O [Complex 3a, 1-(α-D-Glucopyranosyl)-4-(pyridin-2-yl)-1,2,3-triazole]
- pK a [1]: 3.59 (1)
- logβ [ML] [2]: 5.50 (4)
